Patent US20240092784A1, “CONDENSED HETEROCYCLIC COMPOUND” (NISSAN CHEMICAL CORPORATION, priority 2020, published 2024)
Counter-ions that a name gives are not always drawn.

target: human SPR (Homo sapiens (Human), UniProt P35270); assay: Evaluation Example 2: Measurement of human SPR inhibitory activity (seven concentrations, sepiapterin absorbance at 420 nm); assay type: biochemical; details: Evaluation Example 2, seven concentrations 0.14 nM to 100 nM, 240 minutes at room temperature, read-out: IC50
Protocol: Human SPR was prepared as described below. The full-length human SPR (1-261) cDNA was purchased from Eurofins Genomics as an artificially synthesized plasmid containing a DNA sequence optimized for the E. coli expression system so that the sequence of the expressed protein after transcription and translation matches the sequence described in UniprotKB (P35270).
Linearized insert and vector were prepared by PCR using primers designed for amplification of human SPR cDNA and primers designed to contain the thrombin recognition sequence of pET28a (Novagen) and a polyhistidine tag. Cloning was performed using In-Fusion (registered trademark) HD Cloning Kit (TaKaRa) to thereby construct a human SPR expression plasmid. The resultant human SPR expression plasmid was transformed into BL21 (DE3) competent cells (INVITROGEN).
The cells were inoculated into LB medium (1% triptone, 0.5% yeast extract, 1% sodium chloride) containing […] of kanamycin, and then precultured at 37° C. overnight. The precultured cells were inoculated into TB medium (1.2% triptone, 2.4% yeast extract, 9.4% dipotassium hydrogen phosphate, 2.2% potassium dihydrogen phosphate, 0.8% glycerin) containing […] of kanamycin, and the cultured at 37° C., to thereby induce SPR expression with 0.5 mM IPTG for four hours. After the induction, the cells were collected by centrifugation at 6,000 G for 30 minutes and washed with PBS, and the washing was discarded. The washed cells were suspended in buffer solution A (20 mM MES, pH 6.5, 100 mM sodium chloride, 1 mM DTT, 5 mM imidazole). Subsequently, the cell suspension was subjected to ultrasonic treatment to thereby homogenize the cells. The cell homogenate was clarified by centrifugation at 30,000 G for 60 minutes and then filtered with a […]. The filtrate was allowed to pass through HisTrapFF 5 mL column (GE Healthcare). The resin was washed with buffer A, and then gradient elution was performed with buffer B (20 mM MES, pH 6.5, 100 mM sodium chloride, 1 mM DTT, 500 mM imidazole). Thrombin was added to a fraction containing the SPR protein, and the mixture was dialyzed in buffer A overnight, to thereby cleave the tag. After removal of the thrombin by with Benzamidine Sepharose 4 FF (GE Healthcare), the resultant product was allowed to pass through the HisTrapFF 5 mL column, to thereby remove the tag, followed by concentration with Amicon Ultra 10,000 NMWL (Merck Millipore). The concentrate was purified by gel filtration using HiLoad 16/60 Superdex 75 pg (GE Healthcare) equilibrated with buffer C (20 mM MES, pH 6.5, 100 mM sodium chloride, 1 mM DTT). The fraction containing SPR protein was concentrated and then cryopreserved at −80° C.
Human SPR inhibitory activity was measured by using a 384-well low adsorption clear plate (Greiner) with buffer D containing 100 mM Tris-HCl (pH 7.5) (Thermo Fisher Scientific) and 0.01% bovine serum albumin (Sigma). A compound was diluted with DMSO to achieve seven different final concentrations; i.e., 0.14 nM, 0.41 nM, 1.23 nM, 3.7 nM, 11.1 nM, 33 nM, and 100 nM. A 1.5 μL aliquot of the compound solution prepared with DMSO was diluted with 250 μL of buffer D, and the thus-diluted solution was dispensed into the 384-well plate at 20 μL/well. Thereafter, human SPR was diluted with buffer D to 150 ng/mL and then dispensed into the 384-well plate at 20 μL/well. Subsequently, 40 μL of ultrapure water containing 120 μM sepiapterin (produced by the method described in L-Sepiapterin, Heterocycles, 2008, 76, 1329-1335 and WO 2013/168693) and 160 μM NADPH (Nacalai) was added to each well, and then reaction was initiated. The reaction mixture was incubated at room temperature for 240 minutes. Thereafter, in order to determine the amount of sepiapterin, the absorbance at 420 nm was measured by applying the 384-well plate to EnSpire multimode plate reader (Perkin Elmer). The percent inhibition (%) of human SPR by the test compound was calculated by the following formula.

Sequence of human SPR (P35270 whole entry): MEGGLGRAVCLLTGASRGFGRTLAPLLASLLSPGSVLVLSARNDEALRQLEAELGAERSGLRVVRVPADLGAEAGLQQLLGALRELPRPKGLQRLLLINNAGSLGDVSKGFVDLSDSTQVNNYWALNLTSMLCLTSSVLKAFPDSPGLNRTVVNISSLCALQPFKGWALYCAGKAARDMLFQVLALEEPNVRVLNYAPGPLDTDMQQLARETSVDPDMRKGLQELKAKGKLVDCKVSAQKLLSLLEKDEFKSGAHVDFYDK

In order of rising IC50:
1. Cc1nn2c(O)c(C(=O)NC3CC3)c(=O)n(CC(C)C)c2c1/C=C/C(=O)N1C[C@@H](F)[C@H](F)C1 (racemic) [Synthesis Example 649, N-Cyclopropyl-3-((E)-3-(trans-3,4-difluoropyrrolidin-1-yl)-3-oxoprop-1-en-1-yl)-7-hydroxy-4-isobutyl-2-methyl-5-oxo-4,5-dihydropyrazolo[1,5-a]pyrimidine-6-carboxamide]  0.73 nM
2. CC(C)Cn1c(=O)c(C(=O)NC2CC2)c(O)n2ncc(/C=C/C(=O)N3CCC(F)(F)CC3C)c12 (racemic) [compound 546, (E)-N-Cyclopropyl-3-(3-(4,4-difluoro-2-methylpiperidin-1-yl)-3-oxoprop-1-en-1-yl)-7-hydroxy-4-isobutyl-5-oxo-4,5-dihydropyrazolo[1,5-a]pyrimidine-6-carboxamide (racemate)]  0.77 nM
3. CC(C)Cn1c(=O)c(C(=O)NC2CC2)c(O)n2ncc(/C=C/C(=O)N3CCOCC3CC(F)(F)F)c12 (single isomer, unassigned) [compound 550, (E)-N-Cyclopropyl-7-hydroxy-4-isobutyl-5-oxo-3-(3-oxo-3-(3-(2,2,2-trifluoroethyl)morpholino)prop-1-en-1-yl)-4,5-dihydropyrazolo[1,5-a]pyrimidine-6-carboxamide (Isomer]  0.79 nM
4. COC(C)Cn1c(=O)c(C(=O)NC2CC2)c(O)n2ncc(/C=C/C(=O)N3CCOCC3)c12 (single isomer, unassigned) [Synthesis Example 384, (E)-N-Cyclopropyl-7-hydroxy-4-(2-methoxypropyl)-3-(3-morpholino-3-oxoprop-1-en-1-yl)-5-oxo-4,5-dihydropyrazolo[1,5-a]pyrimidine-6-carboxamide]  0.82 nM
5. COC(C)Cn1c(=O)c(C(=O)NC2CC2)c(O)n2ncc(/C=C/C(=O)N3CCOCC3)c12 (single isomer, unassigned) [Synthesis Example 385, (E)-N-Cyclopropyl-7-hydroxy-4-(2-methoxypropyl)-3-(3-morpholino-3-oxoprop-1-en-1-yl)-5-oxo-4,5-dihydropyrazolo[1,5-a]pyrimidine-6-carboxamide]  0.83 nM
6. CC(C)Cn1c(=O)c(C(=O)NC2CC2)c(O)n2ncc(/C=C/C(=O)N3CCC(C)(O)C3)c12 (racemic) [compound 500, (E)-N-Cyclopropyl-7-hydroxy-3-(3-(3-hydroxy-3-methylpyrrolidin-1-yl)-3-oxoprop-1-en-1-yl)-4-isobutyl-5-oxo-4,5-dihydropyrazolo[1,5-a]pyrimidine-6-carboxamide (racemate)]  0.88 nM
7. CC(Cn1c(=O)c(C(=O)NC2CC2)c(O)n2ncc(/C=C/C(=O)N3CCOCC3)c12)C(F)(F)F (single isomer, unassigned) [Synthesis Example 389, (E)-N-Cyclopropyl-7-hydroxy-3-(3-morpholino-3-oxoprop-1-en-1-yl)-5-oxo-4-(3,3,3-trifluoro-2-methylpropyl)-4,5-dihydropyrazolo[1,5-a]pyrimidine-6-carboxamide]  0.95 nM
8. CC(C)Cn1c(=O)c(C(=O)NC2CC2)c(O)n2ncc(/C=C/C(=O)N3CCC(C(F)F)C3)c12 (racemic) [compound 596, (E)-N-Cyclopropyl-3-(3-(3-(difluoromethyl)pyrrolidin-1-yl)-3-oxoprop-1-en-1-yl)-7-hydroxy-4-isobutyl-5-oxo-4,5-dihydropyrazolo[1,5-a]pyrimidine-6-carboxamide (racemate)]  0.96 nM
9. Cc1nn2c(O)c(C(=O)NC3CC3)c(=O)n(CC(C)C)c2c1/C=C/C(=O)N1CCC2CC21 (racemic) [compound 609, (E)-3-(3-(2-Azabicyclo[3.1.0]hexan-2-yl)-3-oxoprop-1-en-1-yl)-N-cyclopropyl-7-hydroxy-4-isobutyl-2-methyl-5-oxo-4,5-dihydropyrazolo[1,5-a]pyrimidine-6-carboxamide (racemate)]  1.23 nM
10. CC(C)Cn1c(=O)c(C(=O)NC2CC2)c(O)n2ncc(/C=C/C(=O)N3CCCC3C3CC3)c12 (racemic) [compound 593, (E)-N-Cyclopropyl-3-(3-(2-cyclopropylpyrrolidin-1-yl)-3-oxoprop-1-en-1-yl)-7-hydroxy-4-isobutyl-5-oxo-4,5-dihydropyrazolo[1,5-a]pyrimidine-6-carboxamide (racemate)]  1.48 nM
11. CC(Cn1c(=O)c(C(=O)NC2CC2)c(O)n2ncc(/C=C/C(=O)N3CCOCC3)c12)C(F)(F)F (single isomer, unassigned) [Synthesis Example 388, (E)-N-Cyclopropyl-7-hydroxy-3-(3-morpholino-3-oxoprop-1-en-1-yl)-5-oxo-4-(3,3,3-trifluoro-2-methylpropyl)-4,5-dihydropyrazolo[1,5-a]pyrimidine-6-carboxamide]  1.53 nM
12. CC(C)Cn1c(=O)c(C(=O)NC2CC2)c(O)n2ncc(/C=C/C(=O)N3CCC(C(F)(F)F)C3)c12 (racemic) [compound 595, (E)-N-Cyclopropyl-7-hydroxy-4-isobutyl-5-oxo-3-(3-oxo-3-(3-(trifluoromethyl)pyrrolidin-1-yl)prop-1-en-1-yl)-4,5-dihydropyrazolo[1,5-a]pyrimidine-6-carboxamide (racemate)]  1.54 nM
13. CC(C)Cn1c(=O)c(C(=O)NC2CC2)c(O)n2ncc(/C=C/C(=O)N3CCC4CC43)c12 (racemic) [compound 588, (E)-3-(3-(2-Azabicyclo[3.1.0]hexan-2-yl)-3-oxoprop-1-en-1-yl)-N-cyclopropyl-7-hydroxy-4-isobutyl-5-oxo-4,5-dihydropyrazolo[1,5-a]pyrimidine-6-carboxamide (racemate)]  1.59 nM
14. CCC(N)c1cc2n(CC(C)(C)C)c(=O)c(C(=O)NC3CC3)c(O)n2n1 (racemic) [Synthesis Example 280, 2-(1-Aminopropyl)-N-cyclopropyl-7-hydroxy-4-neopentyl-5-oxo-4,5-dihydropyrazolo[1,5-a]pyrimidine-6-carboxamide hydrochloride (racemate)]  5.64 nM

same assay, conditions: sepiapterin absorbance, Table 41, read-out: concentration at 50% inhibition of human SPR (IC50)

In order of falling IC50:
1. Cc1nn2c(O)c(C(=O)NC3CC3)c(=O)n(CC(C)C)c2c1/C=C/C(=O)N1C[C@@H](F)[C@H](F)C1 (single isomer, unassigned; isomer b) [Synthesis Example 756, N-Cyclopropyl-3-((E)-3-(trans-3,4-difluoropyrrolidin-1-yl)-3-oxoprop-1-en-1-yl)-7-hydroxy-4-isobutyl-2-methyl-5-oxo-4,5-dihydropyrazolo[1,5-a]pyrimidine-6-carboxamide (Isomer B)]  0.71 nM
2. CC(C)Cn1c(=O)c(C(=O)NC2CC2)c(O)n2ncc(/C=C/C(=O)N3C[C@@H](F)[C@H](F)C3)c12 (racemic) [Synthesis Example 723, N-Cyclopropyl-3-((E)-3-(trans-3,4-difluoropyrrolidin-1-yl)-3-oxoprop-1-en-1-yl)-7-hydroxy-4-isobutyl-5-oxo-4,5-dihydropyrazolo[1,5-a]pyrimidine-6-carboxamide (racemate)]  0.69 nM
3. Cc1nn2c(O)c(C(=O)NC3CC3)c(=O)n(CC(C)C)c2c1/C=C/C(=O)N1C[C@@H](F)[C@H](F)C1 (single isomer, unassigned; isomer a) [Synthesis Example 755, N-Cyclopropyl-3-((E)-3-(trans-3,4-difluoropyrrolidin-1-yl)-3-oxoprop-1-en-1-yl)-7-hydroxy-4-isobutyl-2-methyl-5-oxo-4,5-dihydropyrazolo[1,5-a]pyrimidine-6-carboxamide (Isomer A)]  0.61 nM
